# Test results taken from publication PMC6560211, “ApoAI-derived peptide increases glucose tolerance and prevents formation of atherosclerosis in mice” (Diabetologia, 2019).
# No end group written: not given here.
# Test system: Lepr db (db/db) mice
# Experiment: GTT in db/db mice
# Type: in vivo, mouse
# Procedure: Male C57BL/6NTac mice (Taconic, Ejby, Denmark) at 8–9 weeks of age were acclimatised for 1 week on a normal chow diet, then changed to a high-fat diet for 2 weeks (diet-induced obesity; DIO), followed by GTT as indicated. Male Lepr^db (db/db) mice on a BKS background (Taconic) at 5 weeks of age were maintained on a normal chow diet and GTTs were performed at 5.5 and 14 weeks of age as indicated. Blood glucose levels were measured in fresh blood (C57: OneTouch Ultra2, Lifescan, Milpitas, CA, USA; db/db: GlucoSmart Swing, MSP bodmann, Bobingen, Germany) and insulin levels were assayed in serum using ELISA (Mercodia) at the times indicated in ESM Fig. 2. See ESM Methods for more details.
# Fig. 4 Acute treatment with RG54 improves glucose tolerance during GTTs in three models of type 2 diabetes. Male C57Bl/6 mice fed a high-fat diet for 2 weeks (a–d) or db/db mice at 5.5 (e–h) or 14 (i–l) weeks old were fasted overnight, then treated with a single i.p. injection of NaCl (negative control, 200 μl; C57, n=12; db/db 5.5 weeks, n=6; db/db 14 weeks, n=6), liraglutide (0.1 mg/kg; C57, n=11; db/db 5.5 weeks, n=6; db/db 14 weeks, n=6), ApoA-I (14 mg/kg; C57, n=12; db/db 5.5 weeks, n=6; db/db 14 weeks, n=6) or RG54 (12 mg/kg; C57, n=12; db/db 5.5 weeks, n=6; db/db 14 weeks, n=5). After a further 3 h, mice received an i.p. glucose load (40 mg/mouse for C57; 50 mg/mouse for db/db) followed by blood and plasma collection at the indicated times, and blood glucose (a,e,i) and plasma insulin (b,f,j) concentrations were determined. Total AUC was calculated (mmol/l × min for glucose, pmol/l × min for insulin) and then normalised to the average value of the relevant NaCl control group to give relative AUC (% control) for glucose (c,g,k) and insulin (d,h,l). Values are means ± SEM. *p≤0.05, **p≤0.01, ***p≤0.001 vs NaCl control […]
# We next used type 2 diabetes models with a more advanced phenotype: db/db mice at 5.5 and 14 weeks of age.
# At 14 weeks of age, mice were markedly obese with a mean ± SEM body weight of 55.3 ± 0.6 g. […] One mouse was excluded from RG54 treatment group because of very high residual insulin secretion prior to the experiment.
# Male C57BL/6NTac mice were purchased from Taconic (Ejby, Denmark) at 8-9 weeks of age, acclimatised for one week on normal chow diet, then changed to a High-Fat Diet (HFD; Research Diets D12492, 60% fat content) for 2 weeks, followed by glucose tolerance testing (GTT) with timings as indicated (ESM Figure 2). Male Leprdb mice (db/db) on BKS background purchased from Taconic (BKS.Cg-m+/+Leprdb/BomTac, Ejby, Denmark) at 5 weeks of age were maintained on normal chow diet and GTTs were performed at 5.5 and 14 weeks of age with timings as indicated (ESM Figure 2). For the GTTs, mice fasted overnight (9 h) were injected with the appropriate treatment, and after an additional 3 h given ip glucose (C57: 40 mg/mouse; db/db: 50 mg/mouse) followed by collection of serum samples at the indicated times. Blood glucose levels were measured in fresh blood (C57: OnetouchUltra2, Lifescan; db/db: GlucoSmart Swing, MSP bodmann) and insulin levels were assayed in serum using ELISA (Mercodia). db/db mice were independently randomized to treatments groups for GTT at each time point as no carry over was expected between experiments due to the acute nature of the treatment effects. Primary outcomes were blood glucose and insulin measurements during the GTT. C57BL/6NTac mice were euthanized immediately after each experiment whereas db/db were euthanized immediately after the GTT at 14 weeks of age. […]
# and reproducible clinical symptoms of diabetes than females in these models [5; 6] thus ensuring the reproducibility of clinical symptoms between animals within the study. […]
# [1] = db/db 5.5 weeks, 3 h treatment, i.p.
substance,measurement,setting,value
Ac-AEYHAKATEHLSTLSEKAKPALEDLRQGLLPVLESFKVSFLSALEEYTKKLNTQ [RG54],fasting glucose levels,[1],significantly lowered
same,fasting insulin secretion,[1],no significant changes
same,insulin sensitivity as measured by QUICKI,[1],no concomitant change
same,glucose AUC,"db/db 14 weeks, RG54 12 mg/kg i.p., n=5, vs NaCl",no significant change
